Test results reported in patent US11160869B2 (priority 2019, dated 2021).

Key:
[1] = system: growth factors, chemokines and cytokines; assay type: in vivo, mice; conditions: mouse, in vivo
[2] = Single oral capsule dose in NHP: plasma caffeine by LC-MS/MS; assay type: in vivo, Macaca fascicularis
Description: In order to quantitate plasma caffeine levels, an LC-MS/MS detection system was employed. A 25-μL matrix aliquot was fortified with 25 μL of 2.00 μg/mL caffeine-trimethyl-^13C3 internal standard working solution. Analytes were isolated through supported liquid extraction (SLE). A portion of the eluate was transferred and evaporated under a nitrogen stream at approximately 45° C., and the remaining residue reconstituted with 500 μL of water/acetonitrile (95:5, v/v). The final extract was analyzed via HPLC with MS/MS detection using positive ion electrospray and reverse phase chromatography. Caffeine concentration was determined using similarly run calibration controls.
IL-10 delivery construct dosing at multiple fixed doses in non-naïve adult male Macaca fascicularis was conducted by Valley Biosystems (West Sacramento, Calif.). […] Dosing groups are described in TABLE 45.

[3] = Surfactant evaluation under shear stress (vortex 800 rpm 4 h): visual, turbidity, SEC-HPLC; assay type: physicochemical; conditions: for effect of surfactant on IL-10 delivery construct forms (SEC-HPLC): 1xPBS, before/after vortexing
Description: Following vortexing, the solution was visually inspected. The sample without a surfactant was slightly hazy while the samples with the surfactant were clear after vortexing. The turbidity (340-360 nm) of the solution was assessed after vortexing.
SEC-HPLC was carried out on the IL-10 delivery construct formulations before (FIG. 93) and after (FIG. 94) vortexing (TABLE 48).

IL-10RA and IL-10RB = target: T1, IL-10RA and IL-10RB (Homo sapiens, UniProt Q08334+Q13651); assay: IL-10 receptor dimerization luminescence assay in engineered U2OS cells; conditions: 6 h
T1 sequence (Q13651 22-578): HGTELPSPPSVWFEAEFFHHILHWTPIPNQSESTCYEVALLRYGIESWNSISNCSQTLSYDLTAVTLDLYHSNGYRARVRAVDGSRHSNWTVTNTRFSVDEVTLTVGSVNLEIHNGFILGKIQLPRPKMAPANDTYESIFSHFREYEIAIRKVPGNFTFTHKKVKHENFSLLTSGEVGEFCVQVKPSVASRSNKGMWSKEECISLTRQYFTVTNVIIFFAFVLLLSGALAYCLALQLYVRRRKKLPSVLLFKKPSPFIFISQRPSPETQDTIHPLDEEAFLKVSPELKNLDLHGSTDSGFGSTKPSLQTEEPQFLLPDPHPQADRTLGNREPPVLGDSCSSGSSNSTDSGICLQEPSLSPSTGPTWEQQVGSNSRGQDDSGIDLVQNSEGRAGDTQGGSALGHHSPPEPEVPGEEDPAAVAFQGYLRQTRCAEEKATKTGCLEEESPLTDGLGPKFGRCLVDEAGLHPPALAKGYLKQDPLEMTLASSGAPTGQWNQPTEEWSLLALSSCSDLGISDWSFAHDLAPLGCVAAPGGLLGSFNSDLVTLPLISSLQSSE
T1 sequence (Q08334 20-325): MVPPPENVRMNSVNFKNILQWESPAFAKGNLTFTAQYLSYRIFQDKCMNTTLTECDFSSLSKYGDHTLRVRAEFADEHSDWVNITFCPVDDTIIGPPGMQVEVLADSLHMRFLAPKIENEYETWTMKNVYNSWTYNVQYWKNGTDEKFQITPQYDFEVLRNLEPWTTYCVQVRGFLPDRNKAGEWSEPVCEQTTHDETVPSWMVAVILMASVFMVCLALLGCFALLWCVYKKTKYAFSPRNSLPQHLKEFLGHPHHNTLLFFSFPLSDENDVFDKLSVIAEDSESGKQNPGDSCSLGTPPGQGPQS

STAT3 [4] = assay: STAT3 phosphorylation in J774.2 macrophage cells
[5] = Intraluminal injection in T-cell transfer model: rhIL-10 ELISA in intestinal tissue and serum; assay type: in vivo, BALB/c and SCID mice; conditions: intraluminal injection
Description: This study was conducted to examine the potential for the carrier protein to transport rhIL-10 from the intestinal lumen into the submucosal region in inflamed intestinal tissue. The T lymphocyte (T cell) transfer model was used as it is a well-established model of induced chronic colitis in mice and presents many of the essential immunological hallmarks observed in IBD patients. Nine BALB/c mice and twelve SCID mice, including nine with the colitis-like model of inflammation, were dosed with 20 μl of test article via intraluminal injection into the distal ileum and the proximal, middle and distal colon. […] In each group, two mice were terminated 10 minutes after intraluminal injections, and one was terminated 40 minutes after intraluminal injections. Intestinal tissue and serum were collected. Collected tissue was fixed, embedded, sectioned and H&E stained for histological assessment of inflammatory status. ELISA analysis to measure rhIL 10 was performed on lysates prepared from intestinal tissue and serum (FIGS. 106A-106D).

STAT3 [6] = assay: pSTAT3 induction and hIL-10 in intestinal tissue 40 min after oral gavage, immunofluorescence and image analysis; assay type: in vivo, rat; conditions: 40 min post oral gavage
Description: This observation is consistent with findings in mice that intestinal epithelial cells can express IL-10 receptors at their apical surface under certain conditions associated with development and maintenance of barrier function. […] In order to quantify how test articles affected intestinal IL-10 signal transduction pathways, image analysis was performed: high-throughput image batches were collected, segmented by epithelial versus lamina propria localization, and then by cellular features.

IL-1Ra = assay: Systemic IL-1Ra in non-inflamed mice (ELISA MSD); assay type: in vivo; conditions: construct 10 mg/kg; rhIL-10 3 mg/kg; oral
STAT3 [7] = assay: pSTAT3/total STAT3 in colon tissue of non-inflamed mice (ELISA MSD); assay type: in vivo; conditions: construct 1 mg/kg; rhIL-10 0.9 mg/kg; oral

Molecule: Nc1ccc(O)c(C(=O)O)c1 [5-ASA, 5-aminosalicylic acid, reference compound]
- oxazolone-induced increase in plasma GCSF/CSF3 [1]: attenuated

Molecule: Cn1c(=O)c2c(ncn2C)n(C)c1=O [caffeine]
- time at which absorption of caffeine was observable (capsule opening) ([2]; all doses): 2-3 hours post dose
- Cmax ([2]; male, cynomolgus monkey, plasma, po, 1 mg dosing group, 1x10 mg caffeine): 1350 ng/mL
- Cmax ([2]; male, cynomolgus monkey, plasma, po, 20.5 mg dosing group, 1x10 mg caffeine): 800 ng/mL
- Cmax ([2]; male, cynomolgus monkey, plasma, po, 82 mg dosing group, 4x10 mg caffeine): 3790 ng/mL
- Cmax ([2]; male, cynomolgus monkey, plasma, po, 4x10 mg caffeine): 6120 ng/mL
- Tmax ([2]; male, cynomolgus monkey, plasma, po, all doses): 4 h

Molecule: polysorbate 20
- absorbance in the 340-360 nm range after vortexing ([3]; 0.1% in 1xPBS): increase in absorbance was also observed
- effect of surfactant on IL-10 delivery construct forms (SEC-HPLC) [3]: most amount of monomer before vortexing

Molecule: polysorbate 80
- effect of surfactant on IL-10 delivery construct forms (SEC-HPLC) [3]: increase in HMW aggregates and monomers

Molecule: rhIL-10: recombinant human IL-10, commercial preparation, comparator [reference compound]
- EC50 (IL-10RA and IL-10RB; read-out: EC50, IL-10R dimerization): 91.5 pM
- amplitude of pSTAT3/total STAT3 (STAT3 [4]): 2.19%
- rhIL-10 in serum of inflamed animals [5]: minimal amounts of rhIL-10 were detected
- hIL-10 and pSTAT3 in intestinal tissue (STAT3 [6]): exhibited pSTAT3 induction in enterocytes but not in cells within the lamina propria
- increase of systemic IL-1Ra (IL-1Ra): did not significantly increase
- increase in ratio of pSTAT3 to total STAT3 (STAT3 [7]): did not significantly alter

B1: cholix derived carrier: truncated non-toxic cholix variant of 386 amino acids, carrier alone (protein)
chain: VEEALNIFDECRSPCSLTPEPGKPIQSKLSIPSDVVLDEGVLYYSMTINDEQNDIKDEDKGESIITIGEFATVRATRHYVNQDAPFGVIHLDITTENGTKTYSYNRKEGEFAINWLVPIGEDSPASIKISVDELDQQRNIIEVPKLYSIDLDNQTLEQWKTQGNVSFSVTRPEHNIAISWPSVSYKAAQKEGSRHKRWAHWHTGLALCWLVPMDAIYNYITQQNCTLGDNWFGGSYETVAGTPKVITVKQGIEQKPVEQRIHFSKGNAMSALAAHRVCGVPLETLARSRKPRDLTDDLSCAYQAQNIVSLFVATRILFSHLDSVFTLNLDEQEPEVAERLSDLRRINENNPGMVTQVLTVARQIYNDYVTHHPGLTPEQTSAGAQA
- EC50, IL-10R dimerization (IL-10RA and IL-10RB): did not induce IL-10R dimerization
